The text below walks through data of ChEMBL document CHEMBL1131923, “Synthesis and structure-activity relationships of a series of novel thiazoles as inhibitors of aminoacyl-tRNA synthetases” (Bioorg Med Chem Lett, 1999).

Experiment [1] concerns the target T1, Isoleucine--tRNA ligase, cytoplasmic (Homo sapiens, UniProt P41252).
T1 sequence (P41252 whole entry): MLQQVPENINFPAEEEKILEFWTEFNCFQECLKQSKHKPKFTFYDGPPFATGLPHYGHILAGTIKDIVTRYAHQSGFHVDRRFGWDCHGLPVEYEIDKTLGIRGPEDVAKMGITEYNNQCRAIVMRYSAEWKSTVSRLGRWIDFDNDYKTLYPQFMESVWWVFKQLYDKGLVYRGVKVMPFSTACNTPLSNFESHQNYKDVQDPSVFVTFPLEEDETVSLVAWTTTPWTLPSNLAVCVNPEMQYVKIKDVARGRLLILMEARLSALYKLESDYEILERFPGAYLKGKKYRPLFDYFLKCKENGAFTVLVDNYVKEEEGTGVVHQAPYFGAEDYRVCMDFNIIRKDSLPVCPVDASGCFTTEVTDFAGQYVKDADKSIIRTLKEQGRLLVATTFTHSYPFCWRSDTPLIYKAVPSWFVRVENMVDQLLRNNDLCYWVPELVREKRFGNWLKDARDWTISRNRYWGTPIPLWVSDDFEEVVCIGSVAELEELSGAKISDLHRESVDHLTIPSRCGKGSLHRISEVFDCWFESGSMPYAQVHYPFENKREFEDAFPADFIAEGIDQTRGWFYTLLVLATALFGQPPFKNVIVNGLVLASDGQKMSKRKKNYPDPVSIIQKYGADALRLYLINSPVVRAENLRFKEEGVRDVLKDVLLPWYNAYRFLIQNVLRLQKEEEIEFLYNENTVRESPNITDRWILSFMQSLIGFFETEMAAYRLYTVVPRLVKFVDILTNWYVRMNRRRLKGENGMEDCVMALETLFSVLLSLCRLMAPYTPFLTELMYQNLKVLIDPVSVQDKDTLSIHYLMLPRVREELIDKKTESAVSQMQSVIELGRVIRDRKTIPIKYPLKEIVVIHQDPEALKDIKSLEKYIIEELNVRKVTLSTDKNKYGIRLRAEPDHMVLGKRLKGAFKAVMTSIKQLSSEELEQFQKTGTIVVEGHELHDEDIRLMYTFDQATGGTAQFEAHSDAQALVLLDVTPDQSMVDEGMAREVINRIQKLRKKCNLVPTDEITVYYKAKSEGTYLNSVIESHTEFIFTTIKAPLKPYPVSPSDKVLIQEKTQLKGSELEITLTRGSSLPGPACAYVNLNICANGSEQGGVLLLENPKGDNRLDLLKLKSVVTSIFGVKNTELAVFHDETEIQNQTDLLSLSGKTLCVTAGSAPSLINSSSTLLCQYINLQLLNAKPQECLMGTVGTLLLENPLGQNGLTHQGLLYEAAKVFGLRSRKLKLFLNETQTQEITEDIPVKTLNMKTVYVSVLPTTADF
Nature of the experiment: Compound tested for the inhibition of human isoleucyl-tRNA synthetase.

Experiment [2] is described as follows: Selectivity ratio of human to that of Escherichia coli was determined for isoleucyl-tRNA synthetase.
Experiment [3] concerns the target T2, Isoleucine--tRNA ligase (Staphylococcus aureus, UniProt P41972).
T2 sequence (P41972 whole entry): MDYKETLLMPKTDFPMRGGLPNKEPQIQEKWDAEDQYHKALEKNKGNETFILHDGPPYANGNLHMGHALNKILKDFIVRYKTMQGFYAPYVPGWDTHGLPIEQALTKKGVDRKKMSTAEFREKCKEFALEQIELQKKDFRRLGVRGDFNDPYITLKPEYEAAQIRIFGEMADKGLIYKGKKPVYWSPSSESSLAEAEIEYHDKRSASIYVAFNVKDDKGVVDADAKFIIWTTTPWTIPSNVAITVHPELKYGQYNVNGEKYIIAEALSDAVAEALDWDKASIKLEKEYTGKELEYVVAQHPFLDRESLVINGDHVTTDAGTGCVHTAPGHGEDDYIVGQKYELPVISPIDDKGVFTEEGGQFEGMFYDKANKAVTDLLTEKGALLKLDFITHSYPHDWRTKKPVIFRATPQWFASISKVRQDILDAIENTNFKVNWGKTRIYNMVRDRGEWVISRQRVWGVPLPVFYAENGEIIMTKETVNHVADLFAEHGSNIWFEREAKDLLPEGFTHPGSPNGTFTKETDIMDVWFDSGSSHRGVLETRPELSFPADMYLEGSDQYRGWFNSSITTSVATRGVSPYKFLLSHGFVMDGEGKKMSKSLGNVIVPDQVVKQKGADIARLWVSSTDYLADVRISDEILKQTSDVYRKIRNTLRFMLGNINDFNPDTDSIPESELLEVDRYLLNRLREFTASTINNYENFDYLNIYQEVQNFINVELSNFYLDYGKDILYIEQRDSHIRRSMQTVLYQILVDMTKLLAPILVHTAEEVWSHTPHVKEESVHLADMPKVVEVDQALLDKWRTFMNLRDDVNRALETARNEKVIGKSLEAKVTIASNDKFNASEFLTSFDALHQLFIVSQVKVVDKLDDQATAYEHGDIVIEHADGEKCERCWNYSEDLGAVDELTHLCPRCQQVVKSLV
In words: Compound tested for the inhibition of Staphylococcus aureus isoleucyl-tRNA synthetase.

Experiment [4] has as its target Leucine--tRNA ligase, cytoplasmic (Homo sapiens, UniProt Q9P2J5). In words: Compound tested for the inhibition of human Leucyl-tRNA synthetase.
The target in experiment [5] is S. aureus MRSA LeuRS (Staphylococcus aureus, UniProt P67513). In words: Compound tested for the inhibition of Staphylococcus aureus Leucyl-tRNA synthetase.
Experiment [6] in a line: Selectivity ratio of human to that of Escherichia coli was determined for leucyl-tRNA synthetase.

pIC50: −log10 of the molar value.

As usually defined, the pIC50 is the IC50 on a negative log10 scale, so that one unit is a factor of ten. Read a high pIC50 as a low IC50.

S. aureus MRSA LeuRS, sequence (P67513 whole entry, looked up): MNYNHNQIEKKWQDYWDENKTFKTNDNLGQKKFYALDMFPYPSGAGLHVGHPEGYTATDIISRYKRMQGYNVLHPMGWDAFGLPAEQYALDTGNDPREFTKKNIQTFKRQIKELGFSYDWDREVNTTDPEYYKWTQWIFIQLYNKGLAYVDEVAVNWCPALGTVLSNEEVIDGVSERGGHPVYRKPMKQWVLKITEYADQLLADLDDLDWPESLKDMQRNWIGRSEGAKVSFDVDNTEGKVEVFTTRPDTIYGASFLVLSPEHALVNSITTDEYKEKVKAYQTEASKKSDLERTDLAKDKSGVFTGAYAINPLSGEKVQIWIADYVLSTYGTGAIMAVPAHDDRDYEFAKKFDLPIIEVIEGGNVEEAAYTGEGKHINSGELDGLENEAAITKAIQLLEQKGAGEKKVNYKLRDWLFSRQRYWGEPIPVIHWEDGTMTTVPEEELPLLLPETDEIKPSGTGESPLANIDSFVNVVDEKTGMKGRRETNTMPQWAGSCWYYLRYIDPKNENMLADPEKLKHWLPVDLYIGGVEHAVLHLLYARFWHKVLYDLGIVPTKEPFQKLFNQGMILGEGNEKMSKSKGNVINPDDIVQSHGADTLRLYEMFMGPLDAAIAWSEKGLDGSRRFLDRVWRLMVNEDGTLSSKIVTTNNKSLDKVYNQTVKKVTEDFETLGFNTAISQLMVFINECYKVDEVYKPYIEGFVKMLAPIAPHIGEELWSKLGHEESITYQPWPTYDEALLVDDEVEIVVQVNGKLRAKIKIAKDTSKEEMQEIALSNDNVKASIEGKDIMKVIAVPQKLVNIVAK
Leucine--tRNA ligase, cytoplasmic, sequence (Q9P2J5 whole entry): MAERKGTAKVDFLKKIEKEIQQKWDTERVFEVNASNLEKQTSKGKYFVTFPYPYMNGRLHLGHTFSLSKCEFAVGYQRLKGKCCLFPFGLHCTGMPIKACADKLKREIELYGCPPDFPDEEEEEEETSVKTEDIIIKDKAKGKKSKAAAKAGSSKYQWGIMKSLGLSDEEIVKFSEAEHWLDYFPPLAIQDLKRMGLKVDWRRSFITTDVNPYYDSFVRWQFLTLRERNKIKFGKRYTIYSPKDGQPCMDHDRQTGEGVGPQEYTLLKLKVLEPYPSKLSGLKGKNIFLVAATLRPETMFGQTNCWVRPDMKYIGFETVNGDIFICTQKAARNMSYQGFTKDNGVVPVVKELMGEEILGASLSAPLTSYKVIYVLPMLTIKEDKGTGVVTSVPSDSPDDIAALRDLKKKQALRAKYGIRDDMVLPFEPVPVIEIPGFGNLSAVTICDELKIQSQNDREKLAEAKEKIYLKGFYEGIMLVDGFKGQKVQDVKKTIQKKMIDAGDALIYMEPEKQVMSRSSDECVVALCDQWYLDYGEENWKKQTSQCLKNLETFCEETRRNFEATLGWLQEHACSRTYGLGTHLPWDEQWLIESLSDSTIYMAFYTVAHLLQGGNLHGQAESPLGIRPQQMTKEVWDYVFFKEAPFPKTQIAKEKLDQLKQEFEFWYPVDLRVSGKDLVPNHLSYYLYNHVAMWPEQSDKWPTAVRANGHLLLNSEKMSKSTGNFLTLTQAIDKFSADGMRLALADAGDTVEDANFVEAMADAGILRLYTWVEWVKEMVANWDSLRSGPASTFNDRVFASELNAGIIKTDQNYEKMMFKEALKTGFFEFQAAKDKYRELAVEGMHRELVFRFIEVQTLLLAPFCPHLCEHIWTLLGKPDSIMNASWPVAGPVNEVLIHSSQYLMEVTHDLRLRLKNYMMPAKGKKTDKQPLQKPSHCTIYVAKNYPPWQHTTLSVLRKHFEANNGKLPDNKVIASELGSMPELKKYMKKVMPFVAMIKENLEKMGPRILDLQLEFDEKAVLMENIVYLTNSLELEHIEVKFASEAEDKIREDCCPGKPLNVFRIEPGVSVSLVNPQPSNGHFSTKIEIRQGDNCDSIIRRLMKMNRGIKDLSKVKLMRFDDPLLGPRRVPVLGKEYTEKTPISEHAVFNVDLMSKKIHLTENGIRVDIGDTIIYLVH

For the compound `CCC(C)[C@H](N)C(=O)NS(=O)(=O)OC[C@H]1O[C@@H](c2nc(-c3ccc(OC)cc3)cs2)[C@H](O)[C@@H]1O` (stereo not given in full), the negative-log IC50 (pIC50) in experiment [1] is 6.70; in experiment [3], 7.00. Besides, the Selectivity in experiment [2] is 2.
In the case of `CC(C)C[C@H](N)C(=O)NS(=O)(=O)OC[C@H]1O[C@@H](c2nc(-c3ccc(Oc4ccccc4)cc3)cs2)[C@H](O)[C@@H]1O`, the pIC50 in experiment [4] is 6.22; in experiment [5], less than 7.27. Besides, in experiment [6], the Selectivity worked out at 375.
On to `CC[C@H](C)[C@H](N)C(=O)NS(=O)(=O)OC[C@H]1O[C@@H](c2nc(-c3ccccc3)cs2)[C@H](O)[C@@H]1O`, for which the negative-log IC50 (pIC50) in experiment [1] was 6.48; in experiment [3], 5.10.
For `CCC(C)[C@H](N)C(=O)NS(=O)(=O)OC[C@H]1O[C@@H](c2nc(CCc3ccccc3)cs2)[C@H](O)[C@@H]1O` (stereo not given in full), the values for the negative-log IC50 (pIC50) in experiment [1] and in experiment [3] were 6.52 and 7.40, respectively. The Selectivity in experiment [2] came to 10.
On the same counts, the results for `CCC(C)[C@H](N)C(=O)NS(=O)(=O)OC[C@H]1O[C@@H](c2nc(-c3ccccc3OC)cs2)[C@H](O)[C@@H]1O` (stereo not given in full) are 7.00, 6.52 and 3.3.
Take `CCC(C)[C@H](N)C(=O)NS(=O)(=O)OC[C@H]1O[C@@H](c2nc(-c3cc(C#N)co3)cs2)[C@H](O)[C@@H]1O` (stereo not given in full): the pIC50 in experiment [1] was 6.92; in experiment [3], 6.62. In experiment [2], the Selectivity came to 1.
On to `CCC(C)[C@H](N)C(=O)NS(=O)(=O)OC[C@H]1O[C@@H](c2nc(CCc3ccc(Oc4ccccc4)cc3)cs2)[C@H](O)[C@@H]1O` (stereo not given in full), for which the figures for the negative-log IC50 (pIC50) in experiment [1] and in experiment [3] were 5.99 and 6.92, respectively. In experiment [2], the Selectivity is 9.3.
Consider `CCC(C)[C@H](N)C(=O)NS(=O)(=O)OC[C@H]1O[C@@H](c2nc(-c3ccc(Oc4ccccc4)cc3)cs2)[C@H](O)[C@@H]1O` (stereo not given in full), for which the negative logarithm of the IC50 (pIC50) in experiment [1] is 6.43; in experiment [3] it was 6.57. The Selectivity in experiment [2] worked out at 8.2.
As for `CCC(C)[C@H](N)C(=O)NS(=O)(=O)OC[C@H]1O[C@@H](c2nc(-c3ccc4cc(OC)ccc4c3)cs2)[C@H](O)[C@@H]1O` (stereo not given in full), the figures for the pIC50 in experiment [1] and in experiment [3] were 6.40 and 6.89, respectively. Also, the Selectivity in experiment [2] came to 4.
`CC(C)C[C@H](N)C(=O)NS(=O)(=O)OC[C@H]1O[C@@H](c2nc(CCc3ccccc3)cs2)[C@H](O)[C@@H]1O`: the results for the negative logarithm of the IC50 (pIC50) in experiment [4] and in experiment [5] were 6.14 and 7.05, respectively. Also, the Selectivity in experiment [6] is more than 365.
In the case of `CCC(C)[C@H](N)C(=O)NS(=O)(=O)OC[C@H]1O[C@@H](c2nc(-c3cccc(OC)c3)cs2)[C@H](O)[C@@H]1O` (stereo not given in full), the figures for the pIC50 in experiment [1] and in experiment [3] were 7.47 and 7.30, respectively. For the same compound, in experiment [2], the Selectivity amounted to 2.3.
Consider `CC(C)C[C@H](N)C(=O)NS(=O)(=O)OC[C@H]1O[C@@H](c2nc(CCc3ccc(Oc4ccccc4)cc3)cs2)[C@H](O)[C@@H]1O`, for which the pIC50 is 5.94 in experiment [4] and 7.00 in experiment [5]. Further, the Selectivity in experiment [6] was 192.
